Data: ChEMBL document CHEMBL1250530, “Identification of organoselenium compounds that possess chemopreventive properties in human prostate cancer LNCaP cells” (Bioorg Med Chem, 2010)
Active and inactive are the calls of the source. No cut-off for these calls is given here.

Key:
[1] = biological target: T1, Nuclear factor erythroid 2-related factor 2 (Homo sapiens) (UniProt Q16236); assay: Induction of NRF2-mediated ARE enhancer activity in hormone-sensitive human LNCaP cells transfected with pGL3-ARE-TK-luc at 5 uM after 24 hrs by luciferase assay relative to control; format: functional, cell-based
T1 sequence (whole entry): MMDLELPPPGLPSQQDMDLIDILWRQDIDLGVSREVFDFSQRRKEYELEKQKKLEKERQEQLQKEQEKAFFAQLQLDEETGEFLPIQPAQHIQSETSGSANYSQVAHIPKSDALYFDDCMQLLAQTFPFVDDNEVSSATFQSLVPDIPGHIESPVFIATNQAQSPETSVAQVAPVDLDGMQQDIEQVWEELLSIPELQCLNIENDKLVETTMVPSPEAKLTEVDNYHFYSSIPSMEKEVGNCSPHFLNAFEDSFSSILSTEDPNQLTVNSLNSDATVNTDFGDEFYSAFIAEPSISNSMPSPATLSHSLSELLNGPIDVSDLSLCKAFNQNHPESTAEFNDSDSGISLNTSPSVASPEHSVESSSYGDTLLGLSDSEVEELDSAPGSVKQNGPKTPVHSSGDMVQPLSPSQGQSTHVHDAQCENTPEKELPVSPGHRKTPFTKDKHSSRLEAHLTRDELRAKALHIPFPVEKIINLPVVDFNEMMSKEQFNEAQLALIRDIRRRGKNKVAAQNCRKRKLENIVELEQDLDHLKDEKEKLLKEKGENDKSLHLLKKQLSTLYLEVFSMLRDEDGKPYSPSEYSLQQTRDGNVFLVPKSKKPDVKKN

[2] = biological target: T1, Nuclear factor erythroid 2-related factor 2 (Homo sapiens); assay: Induction of NRF2-mediated ARE enhancer activity in hormone-refractory human PC3 cells transfected with pGL3-ARE-TK-luc at 5 uM after 24 hrs by luciferase assay relative to control; format: functional, cell-based; conditions: PC-3
[3] = biological target: T1, Nuclear factor erythroid 2-related factor 2 (Homo sapiens); assay: Induction of NRF2-mediated ARE enhancer activity in hormone-refractory human DU145 cells transfected with pGL3-ARE-TK-luc at 5 uM after 24 hrs by luciferase assay relative to control; format: functional, cell-based; conditions: DU-145
[4] = biological target: T1, Nuclear factor erythroid 2-related factor 2 (Homo sapiens); assay: Increase of NRF2-mediated HO-1 expression in human LNCaP cells at 5 uM after 24 hrs by Western blotting; format: functional, cell-based
[5] = biological target: T1, Nuclear factor erythroid 2-related factor 2 (Homo sapiens); assay: Increase of NRF2-mediated HO-1 expression in hormone-refractory human PC3 cells at 5 uM after 24 hrs by Western blotting; format: functional, cell-based; conditions: PC-3
[6] = biological target: T1, Nuclear factor erythroid 2-related factor 2 (Homo sapiens); assay: Increase of NRF2-mediated HO-1 expression in hormone-refractory human DU145 cells at 5 uM after 24 hrs by Western blotting; format: functional, cell-based; conditions: DU-145
[7] = biological target: T1, Nuclear factor erythroid 2-related factor 2 (Homo sapiens); assay: Increase of NRF2-mediated HO-1 expression in human LNCaP cells after 24 hrs by Western blotting; format: functional, cell-based
[8] = biological target: T1, Nuclear factor erythroid 2-related factor 2 (Homo sapiens); assay: Increase of NRF2-mediated HO-1 expression in human LNCaP cells at 5 uM by Western blotting; format: functional, cell-based; conditions: TDE = time-dependent effect
[9] = biological target: T1, Nuclear factor erythroid 2-related factor 2 (Homo sapiens); assay: Induction of nuclear translocation of NRF2 in human LNCaP cells at 5 uM after 1 hr by Western blotting; format: functional, cell-based
[10] = biological target: T1, Nuclear factor erythroid 2-related factor 2 (Homo sapiens); assay: Induction of nuclear translocation of NRF2 in human LNCaP cells at 5 uM after 6 hrs by Western blotting; format: functional, cell-based
[11] = system: LNCaP; assay: Induction of NRF2 dominant-negative mutant-mediated ARE enhancer activity in human LNCaP cells transfected with pGL3-ARE-TK-luc at 5 uM after 24 hrs by luciferase assay relative to control; format: cell-based
[12] = system: LNCaP; assay: Antioxidant activity in human LNCAP cells assessed as decrease in intracellular ROS level at 5 uM after 5 mins by fluorescence microplate reader assay; format: functional, cell-based
[13] = system: LNCaP; assay: Antioxidant activity in human LNCAP cells assessed as decrease in intracellular ROS level at 5 uM after 1 hr by fluorescence microplate reader assay; format: functional, cell-based
[14] = system: LNCaP; assay: Antioxidant activity in human LNCAP cells assessed as decrease in intracellular ROS level at 5 uM after 12 hrs by fluorescence microplate reader assay; format: functional, cell-based
[15] = system: LNCaP; assay: Induction of morphological changes in human LNCAP cells assessed as appearance of flattened and enlarged cells at 5 uM after 24 to 48 hrs; format: functional, cell-based
[16] = system: LNCaP; assay: Cytotoxicity against human LNCAP cells assessed as reduction of cells count at 5 uM after 24 to 48 hrs by trypan blue dye exclusion assay; format: functional, cell-based
[17] = system: LNCaP; assay: Induction of apoptosis in human LNCAP cells at 5 uM by Hoechst 33342 staining; format: functional, cell-based
[18] = system: LNCaP; assay: Decrease in cyclin B1 expression in human LNCAP cells at 5 uM after 48 hrs by Western blotting; format: functional, cell-based
[19] = system: LNCaP; assay: Decrease in cyclin D1 expression in human LNCAP cells at 5 uM after 48 hrs by Western blotting; format: functional, cell-based
[20] = system: LNCaP; assay: Effect on p21 expression in human LNCAP cells at 5 uM after 48 hrs by Western blotting; format: functional, cell-based
[21] = system: LNCaP; assay: Growth inhibition of human LNCAP cells at 5 uM after 48 hrs by trypan blue dye exclusion assay in presence of 5 uM HO-1 inhibitor Zn-protoporphyrin; format: functional, cell-based
[22] = system: LNCaP; assay: Growth inhibition of human LNCAP cells transfected with HO-1 siRNA at 5 uM after 72 hrs by trypan blue dye exclusion assay; format: functional, cell-based
[23] = biological target: T1, Nuclear factor erythroid 2-related factor 2 (Homo sapiens); assay: Increase of NRF2-mediated HO-1 expression in hormone-refractory human MCF7 cells after 24 hrs by Western blotting; format: functional, cell-based
[24] = biological target: T1, Nuclear factor erythroid 2-related factor 2 (Homo sapiens); assay: Increase of NRF2-mediated HO-1 expression in hormone-refractory human MDA-MB-231 cells after 24 hrs by Western blotting; format: functional, cell-based
[25] = biological target: T1, Nuclear factor erythroid 2-related factor 2 (Homo sapiens); assay: Increase of NRF2-mediated NQO-1 expression in human LNCaP cells at 5 uM after 24 hrs by Western blotting; format: functional, cell-based
[26] = biological target: T1, Nuclear factor erythroid 2-related factor 2 (Homo sapiens); assay: Increase of NRF2-mediated NQO-1 expression in hormone-refractory human PC3 cells at 5 uM after 24 hrs by Western blotting; format: functional, cell-based; conditions: PC-3
[27] = biological target: T1, Nuclear factor erythroid 2-related factor 2 (Homo sapiens); assay: Increase of NRF2-mediated NQO-1 expression in hormone-refractory human DU145 cells at 5 uM after 24 hrs by Western blotting; format: functional, cell-based; conditions: DU-145
[28] = biological target: RAC-alpha serine/threonine-protein kinase (Homo sapiens) (UniProt P31749); assay: Effect on c-Akt phosphorylation in human LNCAP cells; format: cell-based
[29] = system: LNCaP; assay: Effect on ERK phosphorylation in human LNCAP cells; format: cell-based
[30] = biological target: c-Jun N-terminal kinase, JNK (Homo sapiens) (UniProt P45983+P53779+P45984); assay: Effect on JNK phosphorylation in human LNCAP cells; format: cell-based
[31] = biological target: MAP kinase p38 (Homo sapiens) (UniProt O15264+Q15759+Q16539+P53778); assay: Effect on p38 phosphorylation in human LNCAP cells; format: cell-based
[32] = biological target: T1, Nuclear factor erythroid 2-related factor 2 (Homo sapiens); assay: Induction of nuclear translocation of NRF2 in human LNCaP cells at 5 uM after 0.5 hrs by Western blotting; format: functional, cell-based

Chain of RAC-alpha serine/threonine-protein kinase (Homo sapiens) (P31749 whole entry): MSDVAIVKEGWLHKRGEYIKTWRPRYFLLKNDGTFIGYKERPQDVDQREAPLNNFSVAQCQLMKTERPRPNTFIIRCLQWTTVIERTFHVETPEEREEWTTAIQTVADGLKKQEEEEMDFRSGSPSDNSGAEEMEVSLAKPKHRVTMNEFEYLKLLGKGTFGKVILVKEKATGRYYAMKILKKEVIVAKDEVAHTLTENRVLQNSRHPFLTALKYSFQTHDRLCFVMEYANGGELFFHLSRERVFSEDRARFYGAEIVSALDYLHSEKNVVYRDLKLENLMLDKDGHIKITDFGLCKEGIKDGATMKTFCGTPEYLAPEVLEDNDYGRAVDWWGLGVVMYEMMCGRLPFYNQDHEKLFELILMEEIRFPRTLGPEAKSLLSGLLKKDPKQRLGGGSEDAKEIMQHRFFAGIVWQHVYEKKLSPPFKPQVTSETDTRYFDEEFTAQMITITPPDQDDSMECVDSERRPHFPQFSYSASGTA

| fold change (FC) [1] | fold change (FC) [2] | fold change (FC) [3] | Activity [4] | Activity [5] | Activity [6] | Activity [7] | Activity [8] | Activity [10] | Structure (SMILES) | Activity [11] | inhibition [12] | inhibition [13] | inhibition [14] | Activity [15] | Activity [16] | Activity [17] | inhibition [18] | inhibition [19] | Activity [20] | growth inhibition (GI) [21] | further results |
| --- | --- | --- | --- | --- | --- | --- | --- | --- | --- | --- | --- | --- | --- | --- | --- | --- | --- | --- | --- | --- | --- |
| 6 | < 2 | < 2 | Active | Active | Active | Dose-dependent effect | tde | Active | C[C@@H](O[Si](C)(C)C(C)(C)C)[C@H]1C(=O)N2/C(=N/C3CCCCC3)[Se]/C(=C/I)C[C@H]12 | inactive | Active | Active | Active | Active | Active | inactive | Active | Active | inactive | Active | Activity [9]: Active; growth inhibition (GI) [22]: Active; Activity [23]: Active; Activity [24]: Active; Activity [25]: Active; Activity [26]: Active; Activity [27]: Active; Activity [28]: inactive; Activity [29]: inactive; Activity [30]: inactive; Activity [31]: inactive |
| 6 | < 2 | < 2 | Active | Active | Active | Dose-dependent effect | tde | Active | C[C@@H](O[Si](C)(C)C(C)(C)C)[C@H]1C(=O)N2/C(=N/Cc3ccccc3)[Se]/C(=C/I)C[C@H]12 | inactive | Active | Active | Active | Active | Active | inactive | Active | Active | inactive | Active | Activity [32]: Active; growth inhibition (GI) [22]: Active; Activity [23]: Active; Activity [24]: Active; Activity [25]: Active; Activity [26]: Active; Activity [27]: Active; Activity [28]: inactive; Activity [29]: inactive; Activity [30]: inactive; Activity [31]: inactive |
| – | – | – | – | – | – | – | – | – | C[C@@H](O[Si](C)(C)C(C)(C)C)[C@H]1C(=O)N2/C(=N/c3ccc4ccccc4c3)[Se]/C(=C/I)C[C@H]12 | – | – | – | – | – | – | – | – | – | – | – | Activity [1]: Active |
| – | – | – | – | – | – | – | – | – | C[C@@H](O[Si](C)(C)C(C)(C)C)[C@H]1C(=O)N2/C(=N/c3ccccc3)[Se]/C(=C/I)C[C@H]12 | – | – | – | – | – | – | – | – | – | – | – | Activity [1]: Active |
